Measured values as given in ChEMBL document CHEMBL6134912, “Novel Piperidine Substituted Pyrazolopyrimidine Derivatives as SGK1 Inhibitors for Treating Cardiovascular Diseases” (ACS Med Chem Lett, 2025).

target: T1, Serine/threonine-protein kinase Sgk1 (Homo sapiens, UniProt O00141); experiment: Inhibition of GST-tagged human SGK1 using fluorescein labelled ATP-competitive probe by homogeneous time-resolved fluorescence (HTRF) binding assay
T1 sequence (O00141 whole entry): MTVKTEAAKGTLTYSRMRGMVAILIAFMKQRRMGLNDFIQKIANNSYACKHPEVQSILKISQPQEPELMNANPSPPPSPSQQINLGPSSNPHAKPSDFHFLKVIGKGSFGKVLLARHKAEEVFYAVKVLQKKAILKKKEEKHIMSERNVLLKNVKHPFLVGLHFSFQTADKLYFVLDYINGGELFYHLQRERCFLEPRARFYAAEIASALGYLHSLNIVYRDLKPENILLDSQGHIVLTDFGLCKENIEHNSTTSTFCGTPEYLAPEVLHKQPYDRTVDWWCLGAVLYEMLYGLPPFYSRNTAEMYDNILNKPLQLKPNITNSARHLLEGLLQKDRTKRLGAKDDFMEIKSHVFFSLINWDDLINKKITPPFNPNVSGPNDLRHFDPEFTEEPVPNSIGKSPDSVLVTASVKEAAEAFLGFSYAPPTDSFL

Compound	IC50 [nM]
CCC(CC)N[C@H]1CC[C@@H](Oc2nc(C)sc2C(=O)N[C@@H]2CCCN(c3nn(-c4ccc(C(N)=O)c(F)c4)c4ncnc(N)c34)C2)CC1	3
Cc1nc(O[C@H]2CC[C@@H](NC3CCC3)CC2)c(C(=O)N[C@@H]2CCCN(c3nn(-c4ccc(C(N)=O)c(F)c4)c4ncnc(N)c34)C2)s1	4
Cc1nc(O[C@H]2CC[C@@H](N3CCC3)CC2)c(C(=O)N[C@@H]2CCCN(c3nn(C4=CC(=O)OC4)c4ncnc(N)c34)C2)s1	5
Cc1nc(O[C@H]2CC[C@@H](N(C)C)CC2)c(C(=O)N[C@@H]2CCCN(c3nn(-c4ccc(C(N)=O)c(F)c4)c4ncnc(N)c34)C2)s1	4
Cc1nc(O[C@H]2CC[C@@H](NC(C)CO)CC2)c(C(=O)N[C@@H]2CCCN(c3nn(-c4ccc(C(N)=O)c(F)c4)c4ncnc(N)c34)C2)s1 (stereo partly specified)	5
COc1cc(C(=O)N[C@@H]2CCCN(c3nn(-c4ccc(S(C)(=O)=O)cc4)c4ncnc(N)c34)C2)ccn1	5
